Measurements as given in patent publication US12655116B2, “Substituted isophthalic acid diamides” (Bayer Aktiengesellschaft, priority 2020, dated 2026).

How the values were obtained:
[1] = test system: HORMU; assay: Pre-emergence herbicidal action against HORMU; assay type: in vivo, Hordeum murinum; conditions: for pest or weed control at 80 g/ha / pest or weed control at 320 g/ha: Hordeum murinum, 504 h, pre-emergence
Summary of the method: (§1)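 Sandy loam pots, seeds covered with soil, then surface-treated with WP or EC formulations at 600–800 l/ha water plus 0.2% wetting agent. Greenhouse, 3 weeks. Percent damage vs untreated controls.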

[2] = test system: LOLRI; assay: Pre-emergence herbicidal action against LOLRI; assay type: in vivo, Lolium rigidum; conditions: Lolium rigidum, 504 h
Summary of the method: as §1

[3] = test system: MATIN; assay: Pre-emergence herbicidal action against MATIN; assay type: in vivo, Matricaria inodora; conditions: Tripleurospermum inodorum, 504 h; for pest or weed control at 80 g/ha: dosage 80 g/ha; for pest or weed control at 320 g/ha: dosage 320 g/ha
Summary of the method: as §1

[4] = test system: SETVI; assay: Post-emergence herbicidal action against SETVI; assay type: in vivo, Setaria viridis; conditions: Setaria viridis, 504 h, dosage 80 g/ha
Summary of the method: (§2)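 Herbicidal action is a visual percentage rating (0% = as untreated control, 100% = plants dead) made roughly 3 weeks after treatment. Plants were grown in sandy loam in the greenhouse and treated at the one-leaf stage, 2 to 3 weeks post-sowing. Treatment was a foliar spray of wettable-powder or emulsion-concentrate formulations at 600 to 800 l/ha water plus 0.2% wetting agent.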

[5] = test system: ABUTH; assay: Post-emergence herbicidal action against ABUTH; assay type: in vivo, Abutilon theophrasti; conditions: Abutilon theophrasti, 504 h, visual assessment about 3 weeks after treatment vs untreated controls; for pest or weed control at 20 g/ha: dosage 20 g/ha; for pest or weed control at 80 g/ha: dosage 80 g/ha
Summary of the method: as §2

[6] = test system: PHBPU; assay: Post-emergence herbicidal action against PHBPU; assay type: in vivo, Pharbitis purpurea; conditions: Ipomoea purpurea, 504 h; for pest or weed control at 80 g/ha: dosage 80 g/ha
Summary of the method: as §2

[7] = test system: AMARE; assay: Pre-emergence herbicidal action against AMARE; assay type: in vivo, Amaranthus retroflexus; conditions: Amaranthus retroflexus, 504 h, 100% = plants have died, 0% = like control plants; for pest or weed control at 80 g/ha / pest or weed control at 20 g/ha: scored visually after 3 weeks vs untreated controls; for pest or weed control at 320 g/ha: scored visually after 3 weeks
Summary of the method: as §1

[8] = test system: ALOMY; assay: Pre-emergence herbicidal action against ALOMY; assay type: in vivo, Alopecurus myosuroides; conditions: Alopecurus myosuroides, 504 h, pre-emergence; for pest or weed control at 80 g/ha: scored visually after 3 weeks vs untreated controls (100% = plants have died, 0% = like control plants); for pest or weed control at 320 g/ha: scored visually after 3 weeks, 100% = plants have died, 0% = like control plants
Summary of the method: as §1

[9] = test system: SETVI; assay: Pre-emergence herbicidal action against SETVI; assay type: in vivo, Setaria viridis; conditions: Setaria viridis, 504 h; for pest or weed control at 80 g/ha: dosage 80 g/ha; for pest or weed control at 320 g/ha: dosage 320 g/ha
Summary of the method: as §1

[10] = test system: AMARE; assay: Post-emergence herbicidal action against AMARE; assay type: in vivo, Amaranthus retroflexus; conditions: Amaranthus retroflexus, 504 h, visual assessment about 3 weeks after treatment, 100% = plants have died, 0% = like control plants
Summary of the method: as §2

[11] = test system: VIOTR; assay: Post-emergence herbicidal action against VIOTR; assay type: in vivo, Viola tricolor; conditions: Viola tricolor, 504 h
Summary of the method: as §2

[12] = test system: VERPE; assay: Post-emergence herbicidal action against VERPE; assay type: in vivo, Veronica persica; conditions: Veronica persica, 504 h
Summary of the method: as §2

[13] = test system: STEME; assay: Post-emergence herbicidal action against STEME; assay type: in vivo, Stellaria media; conditions: Stellaria media, 504 h
Summary of the method: as §2

[14] = test system: STEME; assay: Pre-emergence herbicidal action against STEME; assay type: in vivo, Stellaria media; conditions: Stellaria media, 504 h; for pest or weed control at 80 g/ha: dosage 80 g/ha; for pest or weed control at 320 g/ha: dosage 320 g/ha
Summary of the method: as §1

[15] = test system: ABUTH; assay: Pre-emergence herbicidal action against ABUTH; assay type: in vivo, Abutilon theophrasti; conditions: Abutilon theophrasti, 504 h; for pest or weed control at 80 g/ha: scored visually after 3 weeks vs untreated controls (100% = plants have died, 0% = like control plants); for pest or weed control at 320 g/ha: Dosage: 320 g/ha, scored visually after 3 weeks; for pest or weed control at 320 g/ha / pest or weed control at 20 g/ha: 100% = plants have died, 0% = like control plants; for pest or weed control at 20 g/ha: dosage 20 g/ha, scored visually after 3 weeks vs untreated controls, read-out: Pre-emergence action against ABUTH (herbicidal activity in percent)
Summary of the method: as §1

[16] = test system: ECHCG; assay: Pre-emergence herbicidal action against ECHCG; assay type: in vivo, Echinochloa crus-galli; conditions: Echinochloa crus-galli, 504 h
Summary of the method: as §1

[17] = test system: HORMU; assay: Post-emergence herbicidal action against HORMU; assay type: in vivo, Hordeum murinum; conditions: Hordeum murinum, 504 h, dosage 80 g/ha
Summary of the method: as §2

[18] = test system: AVEFA; assay: Pre-emergence herbicidal action against AVEFA; assay type: in vivo, Avena fatua; conditions: Avena fatua, 504 h, pre-emergence
Summary of the method: as §1

[19] = test system: POLCO; assay: Post-emergence herbicidal action against POLCO; assay type: in vivo, Polygonum convolvulus; conditions: Fallopia convolvulus, 504 h, dosage 80 g/ha
Summary of the method: as §2

[20] = test system: VIOTR; assay: Pre-emergence herbicidal action against VIOTR; assay type: in vivo, Viola tricolor; conditions: Viola tricolor, 504 h; for pest or weed control at 80 g/ha: dosage 80 g/ha; for pest or weed control at 320 g/ha: dosage 320 g/ha
Summary of the method: as §1

[21] = test system: VERPE; assay: Pre-emergence herbicidal action against VERPE; assay type: in vivo, Veronica persica; conditions: Veronica persica, 504 h; for pest or weed control at 320 g/ha: dosage 320 g/ha; for pest or weed control at 80 g/ha: dosage 80 g/ha
Summary of the method: as §1

[22] = test system: POLCO; assay: Pre-emergence herbicidal action against POLCO; assay type: in vivo, Polygonum convolvulus; conditions: Fallopia convolvulus, 504 h; for pest or weed control at 320 g/ha: dosage 320 g/ha
Summary of the method: as §1

[23] = scored visually after 3 weeks, 100% = plants have died, 0% = like control plants
[24] = 20 g/ha, scored visually after 3 weeks, 100% = plants have died, 0% = like control plants

## CNC(=O)c1c(C(F)(F)F)ccc(C(=O)Nc2nnnn2C)c1SC [Example 1-81]
[1]
  pest or weed control at 80 g/ha: 80%
  pest or weed control at 320 g/ha: 100%
[2]
  pest or weed control at 320 g/ha: 80%
[3]
  pest or weed control at 80 g/ha: 100%
  pest or weed control at 320 g/ha: 100%
[4]
  pest or weed control at 80 g/ha: 90%
[5]
  pest or weed control at 20 g/ha: 80%
  pest or weed control at 80 g/ha: 90%
[6]
  pest or weed control at 80 g/ha: 80%
[7]
  pest or weed control at 80 g/ha: 100%
  pest or weed control at 320 g/ha: 100%
[8]
  pest or weed control at 80 g/ha: 80%
  pest or weed control at 320 g/ha: 100%
[9]
  pest or weed control at 80 g/ha: 100%
  pest or weed control at 320 g/ha: 100%
[10]
  pest or weed control at 20 g/ha: 90%
  pest or weed control at 80 g/ha: 90%
[11]
  pest or weed control at 80 g/ha: 80%
[12]
  pest or weed control at 20 g/ha: 80%
  pest or weed control at 80 g/ha: 90%
[13]
  pest or weed control at 20 g/ha: 90%
  pest or weed control at 80 g/ha: 90%
[14]
  pest or weed control at 80 g/ha: 100%
  pest or weed control at 320 g/ha: 100%
[15]
  pest or weed control at 80 g/ha: 100%
  pest or weed control at 320 g/ha: 100%
[16]
  pest or weed control at 80 g/ha: 100%
  pest or weed control at 320 g/ha: 100%
[17]
  pest or weed control at 80 g/ha: 80%
[18]
  pest or weed control at 80 g/ha: 90%
[18]; [23]
  pest or weed control at 320 g/ha: 100%
[19]
  pest or weed control at 80 g/ha: 90%
[20]
  pest or weed control at 80 g/ha: 90%
  pest or weed control at 320 g/ha: 100%
[21]
  pest or weed control at 320 g/ha: 100%

## CCn1nnnc1NC(=O)c1ccc(C(F)(F)F)c(C(=O)NC(C)=O)c1Cl [Example 2-337]
[1]; [24]
  Pre-emergence action against HORMU: 90%
[1]
  pest or weed control at 80 g/ha: 90%
  pest or weed control at 320 g/ha: 100%
[2]; 80 g/ha
  pest or weed control at 80 g/ha: 80%
[2]
  pest or weed control at 320 g/ha: 90%
[3]; dosage 20 g/ha
  pest or weed control at 20 g/ha: 80%
[3]
  pest or weed control at 80 g/ha: 100%
  pest or weed control at 320 g/ha: 100%
[5]
  pest or weed control at 20 g/ha: 100%
  pest or weed control at 80 g/ha: 100%
[6]
  pest or weed control at 80 g/ha: 80%
[7]
  pest or weed control at 20 g/ha: 90%
  pest or weed control at 80 g/ha: 100%
  pest or weed control at 320 g/ha: 100%
[8]
  pest or weed control at 80 g/ha: 90%
  pest or weed control at 320 g/ha: 100%
[9]; dosage 20 g/ha
  pest or weed control at 20 g/ha: 90%
[9]
  pest or weed control at 80 g/ha: 100%
  pest or weed control at 320 g/ha: 100%
[10]
  pest or weed control at 20 g/ha: 100%
  pest or weed control at 80 g/ha: 100%
[11]
  pest or weed control at 80 g/ha: 90%
[12]; 5 g/ha
  pest or weed control at 5 g/ha: 80%
[12]
  pest or weed control at 20 g/ha: 100%
  pest or weed control at 80 g/ha: 100%
[13]
  pest or weed control at 20 g/ha: 90%
  pest or weed control at 80 g/ha: 90%
[22]
  pest or weed control at 320 g/ha: 80%
[14]; dosage 20 g/ha
  pest or weed control at 20 g/ha: 90%
[14]
  pest or weed control at 80 g/ha: 90%
  pest or weed control at 320 g/ha: 100%
[15]
  pest or weed control at 80 g/ha: 100%
  pest or weed control at 320 g/ha: 100%
  pest or weed control at 20 g/ha: 100%
[16]; 20 g/ha
  pest or weed control at 20 g/ha: 80%
[16]
  pest or weed control at 80 g/ha: 100%
  pest or weed control at 320 g/ha: 100%
[18]
  pest or weed control at 80 g/ha: 100%
[18]; [24]
  pest or weed control at 20 g/ha: 90%
[18]; [23]
  pest or weed control at 320 g/ha: 100%
[20]; dosage 20 g/ha
  pest or weed control at 20 g/ha: 90%
[20]
  pest or weed control at 80 g/ha: 100%
  pest or weed control at 320 g/ha: 100%
[21]; dosage 20 g/ha
  pest or weed control at 20 g/ha: 80%
[21]
  pest or weed control at 80 g/ha: 90%
  pest or weed control at 320 g/ha: 90%

## CCCn1nnnc1NC(=O)c1ccc(C(F)(F)F)c(C(N)=O)c1Cl [Example 3-338]
[1]
  pest or weed control at 80 g/ha: 80%
  pest or weed control at 320 g/ha: 100%
[3]
  pest or weed control at 80 g/ha: 90%
  pest or weed control at 320 g/ha: 100%
[4]
  pest or weed control at 80 g/ha: 90%
[5]; dosage 5 g/ha
  pest or weed control at 5 g/ha: 90%
[5]
  pest or weed control at 20 g/ha: 90%
  pest or weed control at 80 g/ha: 100%
[6]; dosage 20 g/ha
  pest or weed control at 20 g/ha: 80%
[6]
  pest or weed control at 80 g/ha: 90%
[7]
  pest or weed control at 20 g/ha: 80%
  pest or weed control at 80 g/ha: 100%
  pest or weed control at 320 g/ha: 100%
[8]
  pest or weed control at 80 g/ha: 80%
  pest or weed control at 320 g/ha: 100%
[9]
  pest or weed control at 320 g/ha: 100%
[10]
  pest or weed control at 20 g/ha: 90%
  pest or weed control at 80 g/ha: 100%
[11]; 20 g/ha
  pest or weed control at 20 g/ha: 90%
[11]
  pest or weed control at 80 g/ha: 100%
[12]
  pest or weed control at 20 g/ha: 90%
  pest or weed control at 80 g/ha: 90%
[13]
  pest or weed control at 20 g/ha: 100%
  pest or weed control at 80 g/ha: 100%
[13]; dosage 5 g/ha
  pest or weed control at 5 g/ha: 80%
[22]; dosage 80 g/ha
  pest or weed control at 80 g/ha: 80%
[22]
  pest or weed control at 320 g/ha: 80%
[14]
  pest or weed control at 80 g/ha: 90%
  pest or weed control at 320 g/ha: 100%
[15]
  pest or weed control at 80 g/ha: 100%
  pest or weed control at 320 g/ha: 100%
  pest or weed control at 20 g/ha: 90%
[16]
  pest or weed control at 320 g/ha: 100%
[17]
  pest or weed control at 80 g/ha: 100%
[18]
  pest or weed control at 80 g/ha: 90%
[18]; [23]
  pest or weed control at 320 g/ha: 100%
[20]
  pest or weed control at 80 g/ha: 90%
  pest or weed control at 320 g/ha: 100%
[21]
  pest or weed control at 80 g/ha: 90%
  pest or weed control at 320 g/ha: 100%
